3 compounds from ChEMBL document CHEMBL1240362, “Intrapulmonary pharmacokinetics of S-013420, a novel bicyclolide antibacterial, in healthy Japanese subjects” (Antimicrob Agents Chemother, 2010) can be followed below.

What all share (assay type): functional
One experiment has as its system Streptococcus pneumoniae. In words: Antimicrobial activity against Streptococcus pneumoniae.
In a further experiment the test system is Staphylococcus aureus. In words: Antimicrobial activity against methicillin susceptible Staphylococcus aureus.
Another experiment has as its system Streptococcus pyogenes. In words: Antimicrobial activity against Streptococcus pyogenes.
The next experiment deals with Haemophilus influenzae. The experiment in a line: Antimicrobial activity against Haemophilus influenzae.

≈ marks a conversion by molar mass, not a printed value.

In the case of `CC[C@H]1OC(=O)[C@H](C)[C@@H](O[C@H]2C[C@@](C)(OC)[C@@H](O)[C@H](C)O2)[C@H](C)[C@@H](O[C@@H]2O[C@H](C)C[C@H](N(C)C)[C@H]2O)[C@](C)(O)C[C@@H](C)CN(C)[C@H](C)[C@@H](O)[C@]1(C)O` [AZITHROMYCIN], the MIC90 against Streptococcus pneumoniae, against Staphylococcus aureus and against Streptococcus pyogenes was 1 µg/mL (≈ 1.34 µM) each time.
Compound `CC[C@H]1OC(=O)[C@H](C)C(=O)[C@H](C)[C@@H](O[C@@H]2O[C@H](C)C[C@H](N(C)C)[C@H]2O)[C@](C)(OC)C[C@@H](C)C(=O)[C@H](C)[C@H]2N(CCCCn3cnc(-c4cccnc4)c3)C(=O)O[C@]12C` [TELITHROMYCIN] returned an MIC90 against Haemophilus influenzae of 4 µg/mL (≈ 4.93 µM).
For the compound `CC[C@H]1OC(=O)[C@H](C)[C@@H](O[C@H]2C[C@@](C)(OC)[C@@H](O)[C@H](C)O2)[C@H](C)[C@@H](O[C@@H]2O[C@H](C)C[C@H](N(C)C)[C@H]2O)[C@](C)(OC)C[C@@H](C)C(=O)[C@H](C)[C@@H](O)[C@]1(C)O` [CLARITHROMYCIN], the MIC90 in the experiment with Streptococcus pneumoniae (Streptococcus pneumoniae, read-out: MIC90) was 1 µg/mL (≈ 1.34 µM); in the experiment on Staphylococcus aureus it was 1 µg/mL (≈ 1.34 µM); in the experiment on Streptococcus pyogenes, 1 µg/mL (≈ 1.34 µM).
